Experimental data from ChEMBL document CHEMBL2311515, “Synthesis and evaluation of antibacterial activity of 7-alkyloxy-4,5-dihydro-imidazo[1,2-a]quinoline derivatives” (2013).
Values after ≈ are worked out from the molar mass of the structure shown.

Key:
Type in all cases: functional
[1] = tested on: Escherichia coli; assay: Antibacterial activity against Escherichia coli ATCC 8739 assessed as growth inhibition after 20 hrs by NCCLS broth microdilution method; details: ATCC 8739, 20 h
[2] = tested on: Staphylococcus aureus; assay: Antibacterial activity against Staphylococcus aureus ATCC 29213 assessed as growth inhibition after 20 hrs by NCCLS broth microdilution method; details: ATCC 29213, 20 h
[3] = tested on: Klebsiella pneumoniae; assay: Antibacterial activity against Klebsiella pneumoniae ATCC 10031 assessed as growth inhibition after 20 hrs by NCCLS broth microdilution method; details: ATCC 10031, 20 h
[4] = tested on: Proteus vulgaris; assay: Antibacterial activity against Proteus vulgaris ATCC 35659 assessed as growth inhibition after 20 hrs by NCCLS broth microdilution method; details: ATCC 35659, 20 h
[5] = tested on: Proteus vulgaris; assay: Ratio of amoxicillin MIC to compound MIC for Proteus vulgaris ATCC 35659
[6] = tested on: Proteus vulgaris; assay: Ratio of ciprofloxacin MIC to compound MIC for Proteus vulgaris ATCC 35659
[7] = tested on: Pasteurella sp.; assay: Antibacterial activity against Pasteurella ATCC 6529 assessed as growth inhibition after 20 hrs by NCCLS broth microdilution method; details: ATCC 6529, 20 h
[8] = tested on: Salmonella; assay: Antibacterial activity against Salmonella ATCC 14028 assessed as growth inhibition after 20 hrs by NCCLS broth microdilution method; details: ATCC 14028, 20 h
[9] = tested on: Pseudomonas aeruginosa; assay: Antibacterial activity against Pseudomonas aeruginosa ATCC 27853 assessed as growth inhibition after 20 hrs by NCCLS broth microdilution method; details: ATCC 27853, 20 h

Row | SMILES | MIC [1] | MIC [2] | further results
1 | CCCCCCOc1ccc2c(c1)CCc1nccn1-2 | 16 µg/mL (≈ 59.2 µM) | 75 µg/mL (≈ 277 µM) | –
2 | CCCCCCCOc1ccc2c(c1)CCc1nccn1-2 | 0.5 µg/mL (≈ 1.76 µM) | 50 µg/mL (≈ 176 µM) | MIC [3]: > 128 µg/mL; MIC [4]: 16 µg/mL (≈ 56.3 µM); Ratio [5]: 8; Ratio [6]: 8; MIC [7]: 2 µg/mL (≈ 7.03 µM); MIC [8]: 64 µg/mL (≈ 225 µM); MIC [9]: 16 µg/mL (≈ 56.3 µM)
3 | CCCCCCCCOc1ccc2c(c1)CCc1nccn1-2 | 25 µg/mL (≈ 83.8 µM) | 50 µg/mL (≈ 168 µM) | –
4 | CCCCCCCCCOc1ccc2c(c1)CCc1nccn1-2 | 50 µg/mL (≈ 160 µM) | 50 µg/mL (≈ 160 µM) | –
5 | CCCCCCCCCCOc1ccc2c(c1)CCc1nccn1-2 | 50 µg/mL (≈ 153 µM) | 100 µg/mL (≈ 306 µM) | –
6 | c1ccc(COc2ccc3c(c2)CCc2nccn2-3)cc1 | 50 µg/mL (≈ 181 µM) | 200 µg/mL (≈ 724 µM) | –
7 | Fc1ccccc1COc1ccc2c(c1)CCc1nccn1-2 | 50 µg/mL (≈ 170 µM) | 150 µg/mL (≈ 510 µM) | –
8 | Fc1cccc(COc2ccc3c(c2)CCc2nccn2-3)c1 | 50 µg/mL (≈ 170 µM) | 150 µg/mL (≈ 510 µM) | –
9 | Fc1ccc(COc2ccc3c(c2)CCc2nccn2-3)cc1 | 50 µg/mL (≈ 170 µM) | 50 µg/mL (≈ 170 µM) | –
10 | Clc1ccccc1COc1ccc2c(c1)CCc1nccn1-2 | 100 µg/mL (≈ 322 µM) | 150 µg/mL (≈ 483 µM) | –
11 | Clc1cccc(COc2ccc3c(c2)CCc2nccn2-3)c1 | 50 µg/mL (≈ 161 µM) | 150 µg/mL (≈ 483 µM) | –
12 | Clc1ccc(COc2ccc3c(c2)CCc2nccn2-3)cc1 | 50 µg/mL (≈ 161 µM) | 50 µg/mL (≈ 161 µM) | –
13 | Brc1ccccc1COc1ccc2c(c1)CCc1nccn1-2 | 50 µg/mL (≈ 141 µM) | 100 µg/mL (≈ 282 µM) | –
14 | Brc1cccc(COc2ccc3c(c2)CCc2nccn2-3)c1 | 50 µg/mL (≈ 141 µM) | 100 µg/mL (≈ 282 µM) | –
15 | Brc1ccc(COc2ccc3c(c2)CCc2nccn2-3)cc1 | 25 µg/mL (≈ 70.4 µM) | 50 µg/mL (≈ 141 µM) | –
16 | Cc1ccc(COc2ccc3c(c2)CCc2nccn2-3)cc1 | 25 µg/mL (≈ 86.1 µM) | 50 µg/mL (≈ 172 µM) | –
17 | COc1ccc(COc2ccc3c(c2)CCc2nccn2-3)cc1 | 50 µg/mL (≈ 163 µM) | 100 µg/mL (≈ 326 µM) | –
18 | CCCOc1ccc2c(c1)CCc1nccn1-2 | 50 µg/mL (≈ 219 µM) | 150 µg/mL (≈ 657 µM) | –
19 | CCCCOc1ccc2c(c1)CCc1nccn1-2 | 50 µg/mL (≈ 206 µM) | 150 µg/mL (≈ 619 µM) | –
20 | CCCCCOc1ccc2c(c1)CCc1nccn1-2 | 50 µg/mL (≈ 195 µM) | 100 µg/mL (≈ 390 µM) | –
21 | CC1(C)S[C@@H]2[C@H](NC(=O)[C@H](N)c3ccc(O)cc3)C(=O)N2[C@H]1C(=O)O [AMOXICILLIN] | 150 µg/mL (≈ 410 µM) | 25 µg/mL (≈ 68.4 µM) | MIC [3]: > 128 µg/mL; MIC [4]: > 128 µg/mL; MIC [7]: 16 µg/mL (≈ 43.8 µM); MIC [8]: > 128 µg/mL; MIC [9]: 16 µg/mL (≈ 43.8 µM)
22 | O=C(O)c1cn(C2CC2)c2cc(N3CCNCC3)c(F)cc2c1=O [CIPROFLOXACIN] | – | – | MIC [3]: 4 µg/mL (≈ 12.1 µM); MIC [4]: 128 µg/mL (≈ 386 µM); MIC [7]: 128 µg/mL (≈ 386 µM); MIC [8]: > 128 µg/mL; MIC [9]: 4 µg/mL (≈ 12.1 µM)
